From US11649222B2, “Compounds” (UNIVERSITETET I OSLO, priority 2016, dated 2023)
pEC50, pIC50: −log10 of the molar value. Counter-ions that a name gives are not always drawn. Like-named read-outs stand apart in the source and are kept apart here.

What was measured:
[1] = tested on: resistant gram-negative MBL-based bacteria; test: MICx: adjuvant concentration giving carbapenem MIC ≤ 2 mg/L; type: cell-based; settings: lowest concentration of compound X that results in a MIC value of ≤ 2 mg/L for carbapenem antibiotics
Experimental: (§1) • Plate bacterial strain(s) on appropriate media: • Gram-negative bacteria with ESBLs or carbapenemases: green agar plates with 100 mg/L ampicillin • Gram-negative bacteria without β-lactamases: green agar plates • Gram-positive bacteria (Staphylococci and Enterococci): blood agar plates • Incubate o.n. at 37° C. […] (Should be used within 15 min of preparation). • Dilute the 0.5 McFarland suspension 1:100 into MH broth. […] Plate 10 μl of the dilution on MH agar plates (×2). Incubate o.n. at 37° C., count the colonies and calculate the final CFU/ml inoculum in the plate by multiplying the average number of colonies with 10000 and divide by 2. The final inoculum should be between 3-7×10^5 CFU/ml. • Add 50 μl of the prepared bacterial suspension to each well in the microtiter plate except negative growth control. Preparation of Compounds/Antibiotics • Calculate the desired concentration-range and volume of the compounds/antibiotics in the assay. […] Dilute the stock solution in MH broth. Make subsequent 2-fold dilutions in MH broth of the desired concentrations if a concentration range is to be tested (remember the extra dilution factor in the assay plate). Always include extra volume for pipetting. Take into consideration stock solutions that are made in buffers that have an effect on bacterial growth (e.g. DMSO).

[2] = molecular target: VIM-2 (Escherichia coli, UniProt Q5U7L7); type: biochemical; settings: purified VIM-2, PD-10 column
Experimental: The eluent used was Chelex-treated HEPES 50 mM buffer, pH 7.5. […] In all experiments, 16 aliquots of 250 μL were taken from the PD-10 column runsout and enzyme activity was analysed. Enzyme activity was measured by adding Nitrocefin as a reporter substrate (final concentration of 50 μM).
To investigate if more extreme time-dependent and concentration-dependent conditions could restore enzyme activity, aliquots having final concentrations of 30 nM column-treated enzyme and 1000 μM Zn^2+ on ice and at room temperature over prolonged time.

[3] = tested on: human hepG2 cells; test: In vitro toxicity in human hepG2 cells (AlamarBlue viability); type: cell-based
Experimental: For viability assays, cells were seeded in white 96-well Nunclon plates at a density of 20,000 cells/well and left overnight to adhere before experiments were conducted. Zn chelators dissolved in DMSO were added to white 96-well plates containing 20000 HepG2 cells/well at concentrations ranging from 1 to 1×10^−6 mM (max DMSO concentration never exceeded 1%) and incubated for 24 hours at 37° C. After 24 hours, AlamarBlue® cell viability reagent (Thermo Fisher, Carlsbad, USA) was added (10% final concentration) and incubated for 4 hours at 37° C.

[4] = Solution stability on storage, measured indirectly by MIC; type: physicochemical; settings: solution stored at 2-8° C.; MIC at 25 mg/L inhibitor
Description: P. aeruginosa harboring VIM-2 and K. pneumonia bearing NDM-1 was used as two indicator strains.

[5] = tested on: K. pneumoniae K66-45; type: cell-based; settings: inhibitor 25 mg/L; MEM 1 mg/L
Experimental: After plating and grown overnight at 37° C., only single colonies, ignoring any touching the edges of the plate, were counted.
10^9 CFU K66-45 (Mueller-Hinton broth, no selection) was plated and grown overnight, 37° C. Only single colonies, ignoring any touching the edges of the plate, were counted.

[6] = In vivo toxicity in healthy mice; parameters: species or system Balb/c mice; settings: ± SEM
Experimental: Female Balb/c mice (4 weeks old, approximately 20 g, Charles River, L'Arbresle, France) acclimatized 4 days in the animal facility before initiation of experiments. […] Individual weights were followed four days a week. Relative weight was calculated as the ratio between the weight of the day and the weight of the first day. The protocol for experiments in mice was approved by the University of Lyon Animal Ethics Committee. Toxicity experiments were performed by Antineo (www.antineo.fr).

[7] = tested on: P. mirabilis (NDM-1); test: Microbroth dilution MIC of meropenem ± 25 mg/L inhibitor; type: cell-based
Experimental: (§2) • Plate bacterial strain(s) on appropriate media: • Gram-negative bacteria with ESBLs or carbapenemases: green agar plates with 100 mg/L ampicillin • Gram-negative bacteria without β-lactamases: green agar plates • Gram-positive bacteria (Staphylococci and Enterococci): blood agar plates • Incubate o.n. at 37° C. Day 2: Prepare the Bacterial Inoculum: • Prepare a 0.5 McFarland suspension of bacteria in 0.85% NaCl. (Should be used within 15 min of preparation). • Dilute the 0.5 McFarland suspension 1:100 into MH broth. Check the inoculum by diluting the prepared bacterial suspension 1:100 (10 μl bacterial suspension+990 μl 0.85% NaCl). Plate 10 μl of the dilution on MH agar plates (×2). Incubate o.n. at 37° C., count the colonies and calculate the final CFU/ml inoculum in the plate by multiplying the average number of colonies with 10000 and divide by 2. The final inoculum should be between 3-7×10^5 CFU/ml. • Add 50 μl of the prepared bacterial suspension to each well in the microtiter plate except negative growth control. Preparation of Compounds/Antibiotics • Calculate the desired concentration-range and volume of the compounds/antibiotics in the assay. […] Dilute the stock solution in MH broth. Make subsequent 2-fold dilutions in MH broth of the desired concentrations if a concentration range is to be tested (remember the extra dilution factor in the assay plate). Always include extra volume for pipetting. Take into consideration stock solutions that are made in buffers that have an effect on bacterial growth (e.g. DMSO).

[8] = tested on: P. stuartii (NDM-1); test: as above; type: cell-based
Experimental: as §2

[9] = tested on: E. coli (VIM-1); test: as above; type: cell-based
Experimental: as §2

[10] = tested on: C. freundii (NDM); test: as above; type: cell-based
Experimental: as §2

[11] = tested on: K. pneumoniae (NDM); test: as above; type: cell-based; settings: K. pneumoniae NDM (several strains)
Experimental: as §2

[12] = tested on: K. pneumoniae (VIM); test: as above; type: cell-based
Experimental: as §2

[13] = tested on: C. freundii (NDM-1); test: as above; type: cell-based
Experimental: as §2

[14] = tested on: E. cloacae (VIM); test: as above; type: cell-based
Experimental: as §2

[15] = tested on: P. stuartii (NDM); test: as above; type: cell-based
Experimental: as §2

[16] = tested on: M. morganii (OXA48+ NDM-1); test: as above; type: cell-based
Experimental: as §2

[17] = tested on: K. pneumoniae (NDM-7); test: as above; type: cell-based
Experimental: as §2

[18] = tested on: K. pneumoniae K66-45 (NDM-1); test: Microbroth dilution MIC of carbapenem with/without inhibitor; type: cell-based
Experimental: as §1

[19] = tested on: K. pneumoniae 50732159 (No MBL); test: Microbroth dilution MIC of meropenem with/without inhibitor; type: cell-based; settings: inhibitor 63 mg/L
Experimental: as §1

[20] = tested on: P. aeruginosa 50692172 (NDM-1); test: as above; type: cell-based; settings: inhibitor 63 mg/L
Experimental: as §1

[21] = tested on: P. aeruginosa 50808021 (No MBL); test: as above; type: cell-based; settings: inhibitor 63 mg/L
Experimental: as §1

[22] = tested on: neurons; settings: Canzoniero et al.; cited from earlier work
[23] = tested on: P. aeruginosa K34-7 (VIM-2); test: Microbroth dilution MIC of carbapenem with/without inhibitor; type: cell-based; settings: inhibitor 63 mg/L
Experimental: as §1

O=C(O)CN(CCN(CC(=O)O)CC(=O)O)CC(=O)O [EDTA, ethylenediaminetetra-acetic acid, reference compound]
MICx [1]: 15 µM | irreversibility of VIM-2 inhibition [2]: did not inhibit VIM-2 irreversibly | pIC50 ([3]; Homo sapiens, HepG2, estimated values (footnote c), read-out: IC50h): 4.52

C[C@@H](N)C(=O)N[C@H](C)C(=O)NCCc1ccc(NC(=O)c2ccc(CN(Cc3ccccn3)Cc3ccccn3)nc2)cc1 [Example 195, N-(4-(2-((R)-2-((R)-2-aminopropanamido)propanamido)ethyl)phenyl)-6-((bis(pyridin-2-ylmethyl)amino)methyl)nicotinamide hydrochloride]
storage time after which the activity was absent [4]: 8 months | storage time at which a loss of activity was observed [4]: 5 months | RF - no of colonies [5]: 163 colonies | Relative weight of mice ([6]; Day 1, treatment 4 mg/kg intraperitoneally): 100 ± 0% | Relative weight of mice ([6]; Day 8, treatment 8 mg/kg): 98 ± 5% | Relative weight of mice ([6]; Day 16, treatment 16 mg/kg): 103 ± 3% | Relative weight of mice ([6]; Day 22, treatment 32 mg/kg): 103 ± 3% | Relative weight of mice ([6]; Day 29, treatment 64 mg/kg): 106 ± 6% | Relative weight of mice ([6]; Day 36, treatment 120 mg/kg): 110 ± 8% | Relative weight of mice ([6]; Day 43, no injection, reporting): 110 ± 8% | pIC50 ([3]; Homo sapiens, HepG2, 24 h): < 3.00 | MIC meropenem + 25 mg/L Example 195 [7]: 0.125 µg/mL | MIC meropenem + 25 mg/L Example 195 [8]: 0.125 µg/mL | MIC meropenem + 25 mg/L Example 195 [9]: <0.03 µg/mL | MIC meropenem + 25 mg/L Example 195 [10]: 0.06 µg/mL | MIC meropenem + 25 mg/L Example 195 [11]: 0.06 µg/mL | MIC meropenem + 25 mg/L Example 195 [12]: 0.125 µg/mL | MIC meropenem + 25 mg/L Example 195 [13]: 0.125 µg/mL | MIC meropenem + 25 mg/L Example 195 [14]: <0.03 µg/mL | MIC meropenem + 25 mg/L Example 195 [15]: 0.25 µg/mL | MIC meropenem + 25 mg/L Example 195 [16]: 1 µg/mL | MIC meropenem + 25 mg/L Example 195 [17]: <0.03 µg/mL | MIC ([18]; Klebsiella pneumoniae, read-out: MIC of MEM in the presence of inhibitor): 0.125 µg/mL

c1ccc(CN(CCN(Cc2ccccn2)Cc2ccccn2)Cc2ccccn2)nc1 [TPEN, N,N,N′,N′-tetrakis(2-pyridylmethyl) ethylenediamine, reference compound]
Meropenem activity in presence of inhibitor [19]: ≤0.064 mg/L | Meropenem activity in presence of inhibitor [20]: ≤0.5 mg/L | Meropenem activity in presence of inhibitor [21]: 64 mg/L | MICx [1]: 15 µM | irreversibility of VIM-2 inhibition [2]: irreversibly inhibited | pIC50 ([3]; human hepG2 cells, 24 hours, AlamarBlue, 8 replicates, read-out: IC50): 5.15 | pIC50 ([3]; human hepG2 cells, read-out: IC50h): 5.15 | pEC50 [22]: ~5.30 | Meropenem activity in presence of inhibitor [23]: 1 mg/L | Meropenem activity in presence of inhibitor ([18]; inhibitor 63 mg/L, K. pneumoniae K66-45 NDM-1): ≤0.5 mg/L
